Source: patent publication EP0908457B1, “3-(1,2-benzisothiazol- and isoxazol-5-Y1)-2,4(1H,3H)-pyrimidinedione or thione and 3-(1,2-benzisothiazol- and isoxazol-5-y1)-4(3H)-pyrimidinone or thione herbicidal agents” (BASF AKTIENGESELLSCHAFT, priority 1997, dated 1999)

Assays:
[1] = test system: Echinochloa oryzoides (Ard.) Fritsch.; test: Preemergence weed control under flooded paddy conditions, ECHORC (Watergrass (Calif.)); assay type: in vivo; conditions: flooded paddy; for ECHORC: herbicidal effect rating 0-9, three to four weeks after treatment; for herbicidal effect rating, ECHORC / ECHORC herbicidal rating: rated three to four weeks after treatment; for herbicidal effect rating, ECHORC: meaning of each grade not given here
[2] = test system: Oryza sativa, (L.) Tebonnet; test: Rice tolerance to post-transplant applications under flooded paddy conditions (Example 187), ORYSAT (Rice, Tebonnet); conditions: for ORYSAT: herbicidal effect rating 0-9, three to four weeks after treatment; for herbicidal effect rating ORYSAT / ORYSAT herbicidal rating (rice tolerance): rated three to four weeks after treatment; for herbicidal effect rating ORYSAT: meaning of each grade not given here
[3] = test system: Cyperus serotinus, Rottb.; test: Preemergence weed control under flooded paddy conditions, CYPSE (Flatsedge); assay type: in vivo; conditions: for CYPSE: herbicidal effect rating 0-9, three to four weeks after treatment; for herbicidal effect rating, CYPSE / CYPSE herbicidal rating: rated three to four weeks after treatment; for herbicidal effect rating, CYPSE: meaning of each grade not given here
Cyperus iria = test: Preemergence weed control under flooded paddy conditions, CYPIR (Rice Flatsedge); assay type: in vivo; conditions: flooded paddy; for CYPIR: herbicidal effect rating 0-9, three to four weeks after treatment; for herbicidal effect rating, CYPIR / CYPIR herbicidal rating: rated three to four weeks after treatment; for herbicidal effect rating, CYPIR: meaning of each grade not given here
[4] = test system: Monochoria vaginalis, Presl.; test: Preemergence weed control under flooded paddy conditions, MOOVA (Monochoria); assay type: in vivo; conditions: flooded paddy; for MOOVA: herbicidal effect rating 0-9, three to four weeks after treatment; for herbicidal effect rating, MOOVA / MOOVA herbicidal rating: rated three to four weeks after treatment; for herbicidal effect rating, MOOVA: meaning of each grade not given here
Sagittaria pygmaea, L. = test: Preemergence weed control under flooded paddy conditions, SAGPY (Arrowhead (Pygmaea)); assay type: in vivo; conditions: flooded paddy; for SAGPY: herbicidal effect rating 0-9, three to four weeks after treatment; for herbicidal effect rating, SAGPY / SAGPY herbicidal rating: rated three to four weeks after treatment; for herbicidal effect rating, SAGPY: meaning of each grade not given here
[5] = 0.0320 kg/ha, preemergence weeds
[6] = 0.0620 kg/ha, preemergence weeds
[7] = 0.1250 kg/ha, preemergence weeds
[8] = 0.2500 kg/ha, preemergence weeds
[9] = Rate 0.0320 kg/ha, preemergence weeds
[10] = Rate 0.0620 kg/ha, preemergence weeds
[11] = Rate 0.1250 kg/ha, preemergence weeds
[12] = Rate 0.2500 kg/ha, preemergence weeds
[13] = Rate 0.0320 kg/ha, preemergence
[14] = Rate 0.0620 kg/ha, preemergence
[15] = Rate 0.1250 kg/ha, preemergence
[16] = Rate 0.2500 kg/ha, preemergence

## Cc1ccc(OCC(=O)N(C)S(C)(=O)=O)c(-c2nsc3ccc(-n4c(=O)cc(C(F)(F)F)n(C)c4=O)cc23)c1 [Example 437, Acetamide, 2-{{2-{5-[3,6-dihydro-3-methyl-2,6-dioxo-4-(trifluoromethyl)-1(2H)-pyrimidinyl]-1,2-benzisothiazol-3-yl}-p-tolyl}oxy}-N-methyl-N-(methylsulfonyl)-]
[1]; [5]
  ECHORC: 5.0
[1]; [6]
  ECHORC: 7.0
[1]; [7]
  ECHORC: 7.0
[1]; [8]
  ECHORC: 8.0
[2]; 0.0320 kg/ha
  ORYSAT: 4.0
[2]; 0.0620 kg/ha
  ORYSAT: 5.0
[2]; 0.1250 kg/ha
  ORYSAT: 6.0
[2]; 0.2500 kg/ha
  ORYSAT: 7.0
[3]; [5]
  CYPSE: 0.0
[3]; [6]
  CYPSE: 2.0
[3]; [7]
  CYPSE: 3.0
[3]; [8]
  CYPSE: 7.0
Cyperus iria; [5]
  CYPIR: 0.0
Cyperus iria; [6]
  CYPIR: 0.0
Cyperus iria; [7]
  CYPIR: 4.0
Cyperus iria; [8]
  CYPIR: 6.0
[4]; [5]
  MOOVA: 9.0
[4]; [6]
  MOOVA: 9.0
[4]; [7]
  MOOVA: 9.0
[4]; [8]
  MOOVA: 9.0
Sagittaria pygmaea, L.; [5]
  SAGPY: 0.0
Sagittaria pygmaea, L.; [6]
  SAGPY: 3.0
Sagittaria pygmaea, L.; [7]
  SAGPY: 4.0
Sagittaria pygmaea, L.; [8]
  SAGPY: 7.0

## Cn1c(C(F)(F)F)cc(=O)n(-c2ccc3snc(C(=O)NS(=O)(=O)CCl)c3c2)c1=O [Example 324, 1,2-Benzisothiazole-3-carboxamide, N-[(chloromethyl)sulfonyl]-5-[3,6-dihydro-3-methyl-2,6-dioxo-4-(trifluoromethyl)-1(2H)-pyrimidinyl]-]
[1]; [9]
  herbicidal effect rating, ECHORC: 0.0
[1]; [10]
  herbicidal effect rating, ECHORC: 4.0
[1]; [11]
  herbicidal effect rating, ECHORC: 5.0
[1]; [12]
  herbicidal effect rating, ECHORC: 6.0
[2]; Rate 0.0320 kg/ha
  herbicidal effect rating ORYSAT: 3.0
[2]; Rate 0.0620 kg/ha
  herbicidal effect rating ORYSAT: 4.0
[2]; Rate 0.1250 kg/ha
  herbicidal effect rating ORYSAT: 7.0
[2]; Rate 0.2500 kg/ha
  herbicidal effect rating ORYSAT: 9.0
[3]; [9]
  herbicidal effect rating, CYPSE: 0.0
[3]; [10]
  herbicidal effect rating, CYPSE: 0.0
[3]; [11]
  herbicidal effect rating, CYPSE: 3.0
[3]; [12]
  herbicidal effect rating, CYPSE: 7.0
Cyperus iria; [9]
  herbicidal effect rating, CYPIR: 9.0
Cyperus iria; [10]
  herbicidal effect rating, CYPIR: 9.0
Cyperus iria; [11]
  herbicidal effect rating, CYPIR: 9.0
Cyperus iria; [12]
  herbicidal effect rating, CYPIR: 9.0
[4]; [9]
  herbicidal effect rating, MOOVA: 9.0
[4]; [10]
  herbicidal effect rating, MOOVA: 9.0
[4]; [11]
  herbicidal effect rating, MOOVA: 9.0
[4]; [12]
  herbicidal effect rating, MOOVA: 9.0
Sagittaria pygmaea, L.; [9]
  herbicidal effect rating, SAGPY: 0.0
Sagittaria pygmaea, L.; [10]
  herbicidal effect rating, SAGPY: 3.0
Sagittaria pygmaea, L.; [11]
  herbicidal effect rating, SAGPY: 9.0
Sagittaria pygmaea, L.; [12]
  herbicidal effect rating, SAGPY: 9.0

## COC(=O)c1nsc2cc(F)c(-n3c(=O)cc(C(F)(F)F)n(C)c3=O)cc12 [Example 513, 1,2-Benzisothiazole-3-carboxylic acid, 5-[3,6-dihydro-3-methyl-2,6-dioxo-4-(trifluoromethyl)-1(2H)-pyrimidinyl]-6-fluoro-, methyl ester]
[1]; 0.0320 kg/ha, preemergence
  ECHORC herbicidal rating: 0.0
[1]; 0.0620 kg/ha, preemergence
  ECHORC herbicidal rating: 5.0
[1]; 0.1250 kg/ha, preemergence
  ECHORC herbicidal rating: 7.0
[1]; 0.2500 kg/ha, preemergence
  ECHORC herbicidal rating: 8.0
[2]; 0.0320 kg/ha
  ORYSAT herbicidal rating (rice tolerance): 9.0
[2]; 0.0620 kg/ha
  ORYSAT herbicidal rating (rice tolerance): 7.0
[2]; 0.1250 kg/ha
  ORYSAT herbicidal rating (rice tolerance): 9.0
[2]; 0.2500 kg/ha
  ORYSAT herbicidal rating (rice tolerance): 9.0
[3]; 0.0320 kg/ha, preemergence
  CYPSE herbicidal rating: 9.0
[3]; 0.0620 kg/ha, preemergence
  CYPSE herbicidal rating: 9.0
[3]; 0.1250 kg/ha, preemergence
  CYPSE herbicidal rating: 9.0
[3]; 0.2500 kg/ha, preemergence
  CYPSE herbicidal rating: 9.0
Cyperus iria; 0.0320 kg/ha, preemergence
  CYPIR herbicidal rating: 4.0
Cyperus iria; 0.0620 kg/ha, preemergence
  CYPIR herbicidal rating: 4.0
Cyperus iria; 0.1250 kg/ha, preemergence
  CYPIR herbicidal rating: 6.0
Cyperus iria; 0.2500 kg/ha, preemergence
  CYPIR herbicidal rating: 9.0
[4]; 0.0320 kg/ha, preemergence
  MOOVA herbicidal rating: 9.0
[4]; 0.0620 kg/ha, preemergence
  MOOVA herbicidal rating: 9.0
[4]; 0.1250 kg/ha, preemergence
  MOOVA herbicidal rating: 9.0
[4]; 0.2500 kg/ha, preemergence
  MOOVA herbicidal rating: 9.0
Sagittaria pygmaea, L.; 0.0320 kg/ha, preemergence
  SAGPY herbicidal rating: 9.0
Sagittaria pygmaea, L.; 0.0620 kg/ha, preemergence
  SAGPY herbicidal rating: 9.0
Sagittaria pygmaea, L.; 0.1250 kg/ha, preemergence
  SAGPY herbicidal rating: 9.0
Sagittaria pygmaea, L.; 0.2500 kg/ha, preemergence
  SAGPY herbicidal rating: 9.0

## Cn1c(C(F)(F)F)cc(=O)n(-c2ccc3snc(C(C#N)=Cc4ccncc4)c3c2)c1=O [Example 596, 1,2-Benzisothiazole-3-acetonitrile, 5-[3,6-dihydro-3-methyl-2,6-dioxo-4-(trifluoromethyl)-1(2H)-pyrimidinyl]-alpha-(4-pyridylmethylene)-]
[1]; [13]
  herbicidal effect rating, ECHORC: 0.0
[1]; [14]
  herbicidal effect rating, ECHORC: 4.0
[1]; [15]
  herbicidal effect rating, ECHORC: 5.0
[1]; [16]
  herbicidal effect rating, ECHORC: 7.0
[2]; Rate 0.0320 kg/ha
  herbicidal effect rating ORYSAT: 0.0
[2]; Rate 0.0620 kg/ha
  herbicidal effect rating ORYSAT: 3.0
[2]; Rate 0.1250 kg/ha
  herbicidal effect rating ORYSAT: 4.0
[2]; Rate 0.2500 kg/ha
  herbicidal effect rating ORYSAT: 6.0
[3]; [13]
  herbicidal effect rating, CYPSE: 0.0
[3]; [14]
  herbicidal effect rating, CYPSE: 0.0
[3]; [15]
  herbicidal effect rating, CYPSE: 0.0
[3]; [16]
  herbicidal effect rating, CYPSE: 0.0
Cyperus iria; [13]
  herbicidal effect rating, CYPIR: 0.0
Cyperus iria; [14]
  herbicidal effect rating, CYPIR: 0.0
Cyperus iria; [15]
  herbicidal effect rating, CYPIR: 0.0
Cyperus iria; [16]
  herbicidal effect rating, CYPIR: 0.0
[4]; [13]
  herbicidal effect rating, MOOVA: 3.0
[4]; [14]
  herbicidal effect rating, MOOVA: 4.0
[4]; [15]
  herbicidal effect rating, MOOVA: 7.0
[4]; [16]
  herbicidal effect rating, MOOVA: 9.0
Sagittaria pygmaea, L.; [13]
  herbicidal effect rating, SAGPY: 0.0
Sagittaria pygmaea, L.; [14]
  herbicidal effect rating, SAGPY: 0.0
Sagittaria pygmaea, L.; [15]
  herbicidal effect rating, SAGPY: 2.0
Sagittaria pygmaea, L.; [16]
  herbicidal effect rating, SAGPY: 6.0

## CCOCN(C(=O)c1nsc2ccc(-n3c(=O)cc(C(F)(F)F)n(C)c3=O)cc12)S(C)(=O)=O [Example 370, 1,2-Benzisothiazole-3-carboxamide, 5-[3,6-dihydro-3-methyl-2,6-dioxo-4-(trifluoromethyl)-1(2H)-pyrimidinyl]-N-(ethoxymethyl)-N-(methylsulfonyl)-]
[1]; [13]
  herbicidal effect rating, ECHORC: 3.0
[1]; [14]
  herbicidal effect rating, ECHORC: 4.0
[1]; [15]
  herbicidal effect rating, ECHORC: 6.0
[1]; [16]
  herbicidal effect rating, ECHORC: 7.0
[2]; Rate 0.0320 kg/ha
  herbicidal effect rating ORYSAT: 3.0
[2]; Rate 0.0620 kg/ha
  herbicidal effect rating ORYSAT: 4.0
[2]; Rate 0.1250 kg/ha
  herbicidal effect rating ORYSAT: 4.0
[2]; Rate 0.2500 kg/ha
  herbicidal effect rating ORYSAT: 5.0
[3]; [13]
  herbicidal effect rating, CYPSE: 0.0
[3]; [14]
  herbicidal effect rating, CYPSE: 4.0
[3]; [15]
  herbicidal effect rating, CYPSE: 7.0
[3]; [16]
  herbicidal effect rating, CYPSE: 9.0
Cyperus iria; [13]
  herbicidal effect rating, CYPIR: 4.0
Cyperus iria; [14]
  herbicidal effect rating, CYPIR: 7.0
Cyperus iria; [15]
  herbicidal effect rating, CYPIR: 9.0
Cyperus iria; [16]
  herbicidal effect rating, CYPIR: 9.0
[4]; [13]
  herbicidal effect rating, MOOVA: 7.0
[4]; [14]
  herbicidal effect rating, MOOVA: 9.0
[4]; [15]
  herbicidal effect rating, MOOVA: 9.0
[4]; [16]
  herbicidal effect rating, MOOVA: 9.0
Sagittaria pygmaea, L.; [13]
  herbicidal effect rating, SAGPY: 0.0
Sagittaria pygmaea, L.; [14]
  herbicidal effect rating, SAGPY: 3.0
Sagittaria pygmaea, L.; [15]
  herbicidal effect rating, SAGPY: 7.0
Sagittaria pygmaea, L.; [16]
  herbicidal effect rating, SAGPY: 9.0
